Measured values from patent US20170334899A1, “AMINO-SUBSTITUTED ISOTHIAZOLES” (Bayer Pharma Aktiengesellschaft, priority 2014, published 2017).

Legend:
[1] = tested on: human cervical tumor cell line HeLa (ATCC CCL-2); experiment: SAC-Formation - Paclitaxel-Induced Assay; assay type: cell-based; conditions: Homo sapiens, HeLa, 24 h, HeLa cells, paclitaxel 0.05 μM, test range 0.005 μM-20 μM, read-out: IC50 [mol/l] SAC-Formation - Paclitaxel-Induced Assay
How it was run: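 Read-out is high-content imaging of anti-phospho-H3 Ser10 (mitosis) and Hoechst 33342 (DNA, cell number), with decreased mitotic fraction marking checkpoint breakthrough. Compounds (0.005–20 μM) and 0.05 μM paclitaxel co-added to overnight-plated HeLa for 24 h at 37° C; four-parameter Hill fit.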

[2] = target: T1, CDK2/CycE (Homo sapiens, UniProt P24941); experiment: CDK2/CycE kinase assay (TR-FRET); assay type: biochemical; conditions: avg, read-out: CDK2 avg (IC50 [mol/l])
T1 construct: GST; purchased ProQinase GmbH (Freiburg, Germany); host or cells: insect cells (Sf9)
How it was run: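 Read-out is a TR-FRET 665/620 nm emission ratio from EDTA-stopped reactions detected with anti-pRB(pSer807/pSer811), Eu-labelled anti-mouse IgG and streptavidin-XL665, scaled between no-enzyme and uninhibited wells. Reaction: Sf9-expressed GST-CDK2/GST-CycE, 15 min compound preincubation, 10 μM ATP, 0.75 μM biotin-peptide, 25 min, 22° C., pH 8.0 Tris buffer.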

SMILES	IC50 [1] [nM]	IC50 [2] [nM]
Cc1nsc(Nc2cnc(C(F)(F)F)cn2)c1C(=O)Nc1ccc(OCCCNCCC(F)(F)F)nc1 [Example 294, 3-methyl-5-{[5-(trifluoromethyl)pyrazin-2-yl]amino}-N-(6-{3-[(3,3,3-trifluoropropyl)amino]propoxy}pyridin-3-yl)-1,2-thiazole-4-carboxamide]	560	> 20000
Cc1nsc(Nc2cnc(C(F)(F)F)cn2)c1C(=O)Nc1ccc(N(C)C)c(OCCCN(C)CC(F)(F)F)c1 [Example 299, N-[4-(dimethylamino)-3-{3-[methyl(2,2,2-trifluoroethyl)amino]propoxy}phenyl]-3-methyl-5-{[5-(trifluoromethyl)pyrazin-2-yl]amino}-1,2-thiazole-4-carboxamide]	190	> 20000
Cc1nsc(Nc2cnc(C(F)(F)F)cn2)c1C(=O)Nc1ccc(N(C)C)c(OCCCN(C)CCC(F)(F)F)c1 [Example 300, N-[4-(dimethylamino)-3-{3-[methyl(3,3,3-trifluoropropyl)amino]propoxy}phenyl]-3-methyl-5-{[5-(trifluoromethyl)pyrazin-2-yl]amino}-1,2-thiazole-4-carboxamide]	2000	> 20000
Cc1nsc(Nc2cnc(C(F)(F)F)cn2)c1C(=O)Nc1ccc(F)c(OCCCN(C)CC(F)F)c1 [Example 301, N-(3-{3-[(2,2-difluoroethyl)(methyl)amino]propoxy}-4-fluorophenyl)-3-methyl-5-{[5-(trifluoromethyl)pyrazin-2-yl]amino}-1,2-thiazole-4-carboxamide]	810	> 20000
Cc1nsc(Nc2cnc(C(F)(F)F)cn2)c1C(=O)Nc1ccc(F)c(OCCCN(C)CC(F)(F)F)c1 [Example 302, N-(4-fluoro-3-{3-[methyl(2,2,2-trifluoroethyl)amino]propoxy}phenyl)-3-methyl-5-{[5-(trifluoromethyl)pyrazin-2-yl]amino}-1,2-thiazole-4-carboxamide]	430	> 20000
Cc1nsc(Nc2cnc(C(F)(F)F)cn2)c1C(=O)Nc1ccc(F)c(OCCCN(C)CCC(F)(F)F)c1 [Example 303, N-(4-fluoro-3-{3-[methyl(3,3,3-trifluoropropyl)amino]propoxy}phenyl)-3-methyl-5-{[5-(trifluoromethyl)pyrazin-2-yl]amino}-1,2-thiazole-4-carboxamide]	32	≥ 20000
Cc1nsc(Nc2cncc(C(F)(F)F)n2)c1C(=O)Nc1ccc(OC2CCN(CCC(F)(F)F)CC2)nc1 [Example 304, 3-methyl-5-{[6-(trifluoromethyl)pyrazin-2-yl]amino}-N-(6-{[1-(3,3,3-trifluoropropyl)piperidin-4-yl]oxy}pyridin-3-yl)-1,2-thiazole-4-carboxamide]	90	> 20000
Cc1nsc(Nc2cnc(C(F)(F)F)cn2)c1C(=O)Nc1ccc(F)c(OCCCNCC(F)(F)F)c1 [Example 306, N-(4-fluoro-3-{3-[(2,2,2-trifluoroethyl)amino]propoxy}phenyl)-3-methyl-5-{[5-(trifluoromethyl)pyrazin-2-yl]amino}-1,2-thiazole-4-carboxamide]	95	≥ 20000
Cc1nsc(Nc2cnc(C(F)(F)F)cn2)c1C(=O)Nc1ccc(F)c(OCCCNCCC(F)(F)F)c1 [Example 307, N-(4-fluoro-3-{3-[(3,3,3-trifluoropropyl)amino]propoxy}phenyl)-3-methyl-5-{[5-(trifluoromethyl)pyrazin-2-yl]amino}-1,2-thiazole-4-carboxamide]	380	≥ 20000
Cc1nsc(Nc2cnc(C(F)(F)F)cn2)c1C(=O)Nc1ccc(F)c(OCC2CCN(CCF)CC2)c1 [Example 309, N-(4-fluoro-3-{[1-(2-fluoroethyl)piperidin-4-yl]methoxy}phenyl)-3-methyl-5-{[5-(trifluoromethyl)pyrazin-2-yl]amino}-1,2-thiazole-4-carboxamide]	610	≥ 20000
Cc1nsc(Nc2cnc(C(F)(F)F)cn2)c1C(=O)Nc1ccc(F)c(OCC2CCN(CC(F)(F)F)CC2)c1 [Example 310, N-(4-fluoro-3-{[1-(2,2,2-trifluoroethyl)piperidin-4-yl]methoxy}phenyl)-3-methyl-5-{[5-(trifluoromethyl)pyrazin-2-yl]amino}-1,2-thiazole-4-carboxamide]	49	≥ 20000
Cc1nsc(Nc2cnc(C(F)(F)F)cn2)c1C(=O)Nc1ccc(F)c(OCC2CCN(CCC(F)(F)F)CC2)c1 [Example 311, N-(4-fluoro-3-{[1-(3,3,3-trifluoropropyl)piperidin-4-yl]methoxy}phenyl)-3-methyl-5-{[5-(trifluoromethyl)pyrazin-2-yl]amino}-1,2-thiazole-4-carboxamide]	480	> 20000
Cc1nsc(Nc2cnc(C(F)(F)F)cn2)c1C(=O)Nc1ccc(F)c(OCC2CCN(CCF)C2)c1 (stereo not drawn) [Example 317, N-(4-fluoro-3-{[1-(2-fluoroethyl)pyrrolidin-3-yl]methoxy}phenyl)-3-methyl-5-{[5-(trifluoromethyl)pyrazin-2-yl]amino}-1,2-thiazole-4-carboxamide]	610	> 20000

Results, then the compound that gave them:

IC50 [1] [nM]	IC50 [2] [nM]	SMILES
4000	> 20000	Cc1nsc(Nc2cnc(C(F)(F)F)cn2)c1C(=O)Nc1ccc(OCCCNCC(F)F)nc1 [Example 293, N-(6-{3-[(2,2-difluoroethyl)amino]propoxy}pyridin-3-yl)-3-methyl-5-{[5-(trifluoromethyl)pyrazin-2-yl]amino}-1,2-thiazole-4-carboxamide]
1200	> 20000	Cc1nsc(Nc2cnc(C(F)(F)F)cn2)c1C(=O)Nc1ccc(OC2CCN(CCF)C2)nc1 (stereo not drawn) [Example 295, N-(6-{[1-(2-fluoroethyl)pyrrolidin-3-yl]oxy}pyridin-3-yl)-3-methyl-5-{[5-(trifluoromethyl)pyrazin-2-yl]amino}-1,2-thiazole-4-carboxamide]
300	> 20000	Cc1nsc(Nc2cnc(C(F)(F)F)cn2)c1C(=O)Nc1ccc(OC2CCN(CC(F)F)C2)nc1 (stereo not drawn) [Example 296, N-(6-{[1-(2,2-difluoroethyl)pyrrolidin-3-yl]oxy}pyridin-3-yl)-3-methyl-5-{[5-(trifluoromethyl)pyrazin-2-yl]amino}-1,2-thiazole-4-carboxamide]
56	> 20000	Cc1nsc(Nc2cnc(C(F)(F)F)cn2)c1C(=O)Nc1ccc(OC2CCN(CC(F)(F)F)C2)nc1 (stereo not drawn) [Example 297, 3-methyl-N-(6-{[1-(2,2,2-trifluoroethyl)pyrrolidin-3-yl]oxy}pyridin-3-yl)-5-{[5-(trifluoromethyl)pyrazin-2-yl]amino}-1,2-thiazole-4-carboxamide]
740	> 20000	Cc1nsc(Nc2cnc(C(F)(F)F)cn2)c1C(=O)Nc1ccc(OC2CCN(CCC(F)(F)F)C2)nc1 (stereo not drawn) [Example 298, 3-methyl-5-{[5-(trifluoromethyl)pyrazin-2-yl]amino}-N-(6-{[1-(3,3,3-trifluoropropyl)pyrrolidin-3-yl]oxy}pyridin-3-yl)-1,2-thiazole-4-carboxamide]
220	≥ 20000	Cc1nsc(Nc2cnc(C(F)(F)F)cn2)c1C(=O)Nc1ccc(OCCNCC(F)F)nc1 [Example 305, N-(6-{2-[(2,2-difluoroethyl)amino]ethoxy}pyridin-3-yl)-3-methyl-5-{[5-(trifluoromethyl)pyrazin-2-yl]amino}-1,2-thiazole-4-carboxamide]
51	≥ 20000	Cc1nsc(Nc2cnc(C(F)(F)F)cn2)c1C(=O)Nc1ccc(F)c(OCC2CCN(CC(F)F)CC2)c1 [Example 308, N-(3-{[1-(2,2-difluoroethyl)piperidin-4-yl]methoxy}-4-fluorophenyl)-3-methyl-5-{[5-(trifluoromethyl)pyrazin-2-yl]amino}-1,2-thiazole-4-carboxamide]
55	≥ 20000	Cc1nsc(Nc2cnc(C(F)(F)F)cn2)c1C(=O)Nc1ccc(OC2CCN(C(CF)CF)C2)nc1 (stereo not drawn) [Example 313, N-(6-{[1-(1,3-difluoropropan-2-yl)pyrrolidin-3-yl]oxy}pyridin-3-yl)-3-methyl-5-{[5-(trifluoromethyl)pyrazin-2-yl]amino}-1,2-thiazole-4-carboxamide]
78	≥ 20000	Cc1nsc(Nc2cnc(C(F)(F)F)cn2)c1C(=O)Nc1ccc(F)c(OC2CCN(CC(F)F)C2)c1 (stereo not drawn) [Example 314, N-(3-{[1-(2,2-difluoroethyl)pyrrolidin-3-yl]oxy}-4-fluorophenyl)-3-methyl-5-{[5-(trifluoromethyl)pyrazin-2-yl]amino}-1,2-thiazole-4-carboxamide]
60	≥ 20000	Cc1nsc(Nc2cnc(C(F)(F)F)cn2)c1C(=O)Nc1ccc(F)c(OC2CCN(CC(F)(F)F)C2)c1 (stereo not drawn) [Example 315, N-(4-fluoro-3-{[1-(2,2,2-trifluoroethyl)pyrrolidin-3-yl]oxy}phenyl)-3-methyl-5-{[5-(trifluoromethyl)pyrazin-2-yl]amino}-1,2-thiazole-4-carboxamide]
45	≥ 20000	Cc1nsc(Nc2cnc(C(F)(F)F)cn2)c1C(=O)Nc1ccc(F)c(OCC2CCN(CC(F)F)C2)c1 (stereo not drawn) [Example 316, N-(3-{[1-(2,2-difluoroethyl)pyrrolidin-3-yl]methoxy}-4-fluorophenyl)-3-methyl-5-{[5-(trifluoromethyl)pyrazin-2-yl]amino}-1,2-thiazole-4-carboxamide]
